In general, melting point refers to the temperature, or range, at which the solid turns liquid. `Cc1c(NC(=O)c2ccc(-c3ccc(F)cc3)cc2)ccc2cc(CN3CCCCC3)cnc12` [Example 166, 4′-fluoro-N-[8-methyl-3-(1-piperidinylmethyl)-7-quinolinyl][1,1′-biphenyl]-4-carboxamide] showed a melting point of 188 to 190 °C.
Under `Cc1c(NC(=O)c2ccc(-c3ccccc3)cc2F)ccc2cc(CN3CCCCC3)cnc12` (hydrate or solvate) [Example 169, 3-fluoro-N-[8-methyl-3-(1-piperidinylmethyl)-7-quinolinyl][1,1′-biphenyl]-4-carboxamide] stands 187 to 188 °C; under `Cc1cc2cc(CN3CCCCCC3)cnc2cc1NC(=O)c1ccc(-c2ccc(F)cc2)cc1` [Example 251, N-[3-(1-azepanylmethyl)-6-methyl-7-quinolinyl]-4′-fluoro[1,1′-biphenyl]-4-carboxamide], 170 to 174 °C.
In the case of `Cc1cc2cc(CN3CCCCCC3)cnc2cc1NC(=O)c1ccc(-c2ccc(Cl)s2)cc1` [Example 241, N-[3-(1-azepanylmethyl)-6-methyl-7-quinolinyl]-4-(5-chlorothien-2-yl)benzamide] it was 180 °C; in that of `CNC(=O)CC1CCN(Cc2cnc3cc(NC(=O)c4ccc(-c5ccc(F)cc5)cc4)c(C)cc3c2)CC1` [Example 269, 4′-fluoro-N-[6-methyl-3-({4-[2-(methylamino)-2-oxoethyl]-1-piperidinyl}methyl)-7-quinolinyl][1,1′-biphenyl]-4-carboxamide], 243 °C.
Turning to `Cc1c(NC(=O)c2ccc(-c3ccc4c(c3)OCO4)cc2)ccc2cc(CN3CCCC3)cnc12` (hydrate or solvate) [Example 105, 4-(1,3-benzodioxol-5-yl)-N-[8-methyl-3-(1-pyrrolidinylmethyl)-7-quinolinyl]benzamide], the melting point lay within 171 to 172 °C.
`Cc1c(NC(=O)c2ccc(-c3cc4ccccc4o3)cc2F)ccc2cc(CN3CCCC3)cnc12` [Example 142, 4-(1-benzofuran-2-yl)-2-fluoro-N-[8-methyl-3-(1-pyrrolidinylmethyl)-7-quinolinyl]benzamide] gave a melting point of 202 to 203 °C.
For the compound `O=C(Nc1ccc2cc(CN3CCCCCC3)cnc2c1)N1CCC(c2ccc(Cl)cc2)CC1` [Example 34, N-[3-(1-azepanylmethyl)-7-quinolinyl]-4-(4-chlorophenyl)-1-piperidine carboxamide], the melting point was 247 °C (dec.).
Take `CCc1ccc(-c2ccc(C(=O)Nc3cc4ncc(CN5CCCC5)cc4cc3C)cc2)cc1` [Example 217, 4′-ethyl-N-[6-methyl-3-(1-pyrrolidinylmethyl)-7-quinolinyl][1,1′-biphenyl]-4-carboxamide]: the melting point was 188 °C.
On to `Cc1c(NC(=O)c2ccc(-c3cc4ccccc4o3)cc2)ccc2cc(CN3CCCC3)cnc12` (hydrate or solvate) [Example 106, 4-(1-benzofuran-2-yl)-N-[8-methyl-3-(1-pyrrolidinylmethyl)-7-quinolinyl]benzamide], for which the melting point is 217 to 218 °C.
Compound `O=C(Nc1cc2ncc(CN3CCCC3)cc2cc1F)c1ccc(-c2ccc(F)cc2)cc1` [Example 50, 4′-fluoro-N-[6-fluoro-3-(1-pyrrolidinylmethyl)-7-quinolinyl][1,1′-biphenyl]-4-carboxamide] showed a melting point of 198 to 200 °C.
Compound `Cc1ccc(-c2ccc(C(=O)Nc3cc4ncc(CN5CCCC5)cc4cc3C)c(F)c2)cc1` [Example 229, 3-fluoro-4′-methyl-N-[6-methyl-3-(1-pyrrolidinylmethyl)-7-quinolinyl][1,1′-biphenyl]-4-carboxamide] had a melting point of 176 to 179 °C.
`O=C(Nc1ccc2cc(CN3CCCC3)cnc2c1F)c1ccc(-c2ccc(Cl)cc2)cc1F` [Example 279, 4′-chloro-3-fluoro-N-[8-fluoro-3-(1-pyrrolidinylmethyl)-7-quinolinyl][1,1′-biphenyl]-4-carboxamide]: the melting point worked out at 208 °C.
The compound `O=C(Nc1ccc2cc(CN3CCCC3)cnc2c1F)c1ccc(-c2ccc(Cl)cc2)cc1` [Example 75, 4′-chloro-N-[8-fluoro-3-(1-pyrrolidinylmethyl)-7-quinolinyl][1,1′-biphenyl]-4-carboxamide] came in with a melting point of 206 to 208 °C.
Under `Cc1c(NC(=O)c2ccc(-c3cccc(F)c3)cc2)ccc2cc(CN3CCCC3)cnc12` [Example 112, 3′-fluoro-N-[8-methyl-3-(1-pyrrolidinylmethyl)-7-quinolinyl][1,1′-biphenyl]-4-carboxamide] stands 158 to 159 °C.
`O=C(Nc1ccc2cc(CN3CCCC3)cnc2c1F)c1ccc(-c2ccccc2)cc1` [Example 71, N-[8-fluoro-3-(1-pyrrolidinylmethyl)-7-quinolinyl][1,1′-biphenyl]-4-carboxamide] returned a melting point of 186 to 188 °C.
`O=C(Nc1cc2ncc(CN3CCCC3)cc2cc1N1CCCC1)c1ccc(-c2ccc(F)cc2)cc1` [Example 64, 4′-fluoro-N-[6-(1-pyrrolidinyl)-3-(1-pyrrolidinylmethyl)-7-quinolinyl][1,1′-biphenyl]-4-carboxamide] came in with a melting point of 182 to 184 °C.
In turn, `CNC(=O)CC1CCN(Cc2cnc3c(C)c(NC(=O)c4ccc(-c5ccc(F)cc5)cc4)ccc3c2)CC1` [Example 201, 4′-fluoro-N-[8-methyl-3-({4-[2-(methylamino)-2-oxoethyl]-1-piperidinyl}methyl)-7-quinolinyl][1,1′-biphenyl]-4-carboxamide] yielded a melting point of 229 to 231 °C.
For the compound `COc1ccc(-c2ccc(C(=O)Nc3ccc4cc(CN5CCCC5)cnc4c3)cc2)cc1` [Example 3, 4′-methoxy-N-[3-(1-pyrrolidinylmethyl)-7-quinolinyl][1,1′-biphenyl]-4-carboxamide], the melting point lay within 202 to 204 °C.
`CCNC(=O)CC1CCN(Cc2cnc3c(C)c(NC(=O)c4ccc(-c5ccc(F)cc5)cc4)ccc3c2)CC1` [Example 203, N-[3-({4-[2-(ethylamino)-2-oxoethyl]-1-piperidinyl}methyl)-8-methyl-7-quinolinyl]-4′-fluoro[1,1′-biphenyl]-4-carboxamide] displayed a melting point of 243 to 245 °C.
`O=C(Nc1ccc2cc(CN3CCCC3)cnc2c1F)c1ccc(-c2ccc(F)cc2)cc1` [Example 73, 4′-fluoro-N-[8-fluoro-3-(1-pyrrolidinylmethyl)-7-quinolinyl][1,1′-biphenyl]-4-carboxamide]: the melting point stood at 178 °C.
Compound `Cc1ccc(-c2ccc(C(=O)Nc3cc4ncc(CN5CCCC5)cc4cc3F)cc2)cc1` [Example 54, N-[6-fluoro-3-(1-pyrrolidinylmethyl)-7-quinolinyl]-4′-methyl[1,1′-biphenyl]-4-carboxamide] registered a melting point of 202 to 204 °C.
Take `Cc1c(NC(=O)c2ccc(-c3ccc(Cl)s3)cc2)ccc2cc(CN3CCCCCC3)cnc12` (hydrate or solvate) [Example 181, N-[3-(1-azepanylmethyl)-8-methyl-7-quinolinyl]-4-(5-chloro-2-thienyl)benzamide]: the melting point lay within 186 to 187 °C.
Turning to `CNC(=O)CCCC1CCN(Cc2cnc3c(C)c(NC(=O)c4ccc(-c5ccc(F)cc5)cc4)ccc3c2)CC1` [Example 207, 4′-fluoro-N-[8-methyl-3-({4-[4-(methylamino)-4-oxobutyl]-1-piperidinyl}methyl)-7-quinolinyl][1,1′-biphenyl]-4-carboxamide], the melting point was in the range of 210 to 212 °C.
Take `CCc1c(NC(=O)c2ccc(-c3ccc(F)cc3)cc2)ccc2cc(CN3CCCC3)cnc12` [Example 83, N-[8-ethyl-3-(1-pyrrolidinylmethyl)-7-quinolinyl]-4′-fluoro[1,1′-biphenyl]-4-carboxamide]: the melting point was in the range of 266 to 267 °C.
In the case of `Cc1cc2cc(CN3CCCC3)cnc2cc1NC(=O)c1ccc(-c2ccc(Cl)cc2)c(F)c1` [Example 235, 4′-chloro-2-fluoro-N-[6-methyl-3-(1-pyrrolidinylmethyl)-7-quinolinyl][1,1′-biphenyl]-4-carboxamide], the melting point was in the range of 181 to 185 °C.
With `CN(C)Cc1cnc2cc(NC(=O)c3ccc(-c4ccc(Cl)cc4)cc3)ccc2c1` [Example 1, 4′-chloro-N-[3-[(dimethylamino)methyl]-7-quinolinyl][1,1′-biphenyl]-4-carboxamide], the melting point was in the range of 236 to 238 °C.
On to `CC(=O)c1ccc(-c2ccc(C(=O)Nc3ccc4cc(CN5CCCC5)cnc4c3C)cc2)s1` (hydrate or solvate) [Example 119, 4-(5-acetyl-2-thienyl)-N-[8-methyl-3-(1-pyrrolidinylmethyl)-7-quinolinyl]benzamide], for which the melting point fell in the range of 194 to 195 °C.
`Cc1cc2cc(CN3CCC(CC(=O)N(C)C)CC3)cnc2cc1NC(=O)c1ccc(-c2ccc(F)cc2)cc1` [Example 268, N-[3-({4-[2-(dimethylamino)-2-oxoethyl]-1-piperidinyl}methyl)-6-methyl-7-quinolinyl]-4′-fluoro[1,1′-biphenyl]-4-carboxamide] yielded a melting point of 219 °C.
As to `Cc1c(NC(=O)c2ccc(-c3ccc4c(c3)CCO4)cc2)ccc2cc(CN3CCCC3)cnc12` [Example 113, 4-(2,3-dihydro-1-benzofuran-5-yl)-N-[8-methyl-3-(1-pyrrolidinylmethyl)-7-quinolinyl]benzamide], the melting point was 176 to 177 °C.
`Cc1ccc(-c2ccc(C(=O)Nc3ccc4cc(CN5CCCC5)cnc4c3)cc2)cc1` [Example 5, 4′-methyl-N-[3-(1-pyrrolidinylmethyl)-7-quinolinyl][1,1′-biphenyl]-4-carboxamide]: the melting point is 206 to 208 °C.
In the case of `Cc1ccc(-c2ccc(C(=O)Nc3ccc4cc(CN5CCCC5)cnc4c3C)c(F)c2)cc1` [Example 135, 3-fluoro-4′-methyl-N-[8-methyl-3-(1-pyrrolidinylmethyl)-7-quinolinyl][1,1′-biphenyl]-4-carboxamide] it was 180 to 182 °C.
Compound `Cc1c(NC(=O)c2ccc(-c3ccc(F)cc3)cc2)ccc2cc(CN3CCOCC3)cnc12` [Example 198, 4′-fluoro-N-[8-methyl-3-(4-morpholinylmethyl)-7-quinolinyl][1,1′-biphenyl]-4-carboxamide] gave a melting point of 176 to 178 °C.
With `Cc1cc2cc(CN3CCCCCC3)cnc2cc1NC(=O)c1ccc(-c2ccc(Cl)cc2)cc1F` [Example 243, N-[3-(1-azepanylmethyl)-6-methyl-7-quinolinyl]-4′-chloro-3-fluoro[1,1′-biphenyl]-4-carboxamide], the melting point stood at 209 °C.
